Experimental data from EP2398468B1, “PHARMACEUTICAL COMPOSITIONS COMPRISING PRASUGREL BASE OR ITS PHARMACEUTICALLY ACCEPTABLE ACID ADDITION SALTS AND PROCESSES FOR THEIR PREPARATION” (KRKA, D.D., Novo Mesto, priority 2009, dated 2010).
Values after ≈ are worked out from the molar mass of the structure shown. Where a name gives a salt, the structure may show the parent alone. Read-outs that look alike come from different tables or passages of the source.

Legend:
[1] = Equilibrium solubility in aqueous solutions, shaking flask method for 24 hours; assay type: physicochemical; conditions: for Solubility (mg/mL) at 37°C / Solubility (mg/mL) room temp / solubility at 24 h: 24 hours; for solubility at 24 h: thermodynamic from solid
Experimental: The solubility of prasugrel base and some of its pharmaceutically acceptable salts in different dissolution media (in mg/mL) at room temperature and 37°C is given in Table 2. The equilibrium solubility of prasugrel base and some of its salts were checked in aqueous solutions at room temperature and 37 °C with shaking flask method for 24 hours (Heidoplh Incubator 1000, Unimax 1010). In comparison with prasugrel base, all salts are better soluble in lower pH values. In higher pH values the solubility decreases and at pH 6.8 the compound is slightly soluble to practically insoluble. […]

[2] = physchem; assay type: physicochemical

## CC(=O)Oc1cc2c(s1)CCN(C(C(=O)C1CC1)c1ccccc1F)C2 (stereo not shown) [Prasugrel hydrochloride]
[1]; AGJ (without pepsin) pH 1.2, 37°C, hydrochloride
  Solubility (mg/mL) at 37°C: 4.43 mg/mL
[1]; AGJ (without pepsin) pH 1.2, room temperature, hydrochloride
  Solubility (mg/mL) room temp: 5.00 mg/mL
[1]; Acetate Buffer solution pH 4.0, 37°C, hydrochloride
  Solubility (mg/mL) at 37°C: 0.08 mg/mL
[1]; Acetate Buffer solution pH 4.0, room temperature, hydrochloride
  Solubility (mg/mL) room temp: 0.07 mg/mL

## CC(=O)Oc1cc2c(s1)CCN(C(C(=O)C1CC1)c1ccccc1F)C2 (stereo not drawn) [Prasugrel base, 2-acetoxy-5-([alpha]-cyclopropylcarbonyl-2-fluorobenzyl)-4,5,6,7-tetrahydrothieno[3,2-c]pyridine]
[1]; AGJ (without pepsin) pH 1.2, 37°C
  Solubility (mg/mL) at 37°C: 3.23 mg/mL (≈ 8650 µM)
[1]; AGJ (without pepsin) pH 1.2, room temperature
  Solubility (mg/mL) room temp: 1.54 mg/mL (≈ 4120 µM)
[1]; Acetate Buffer solution pH 4.0, 37°C
  Solubility (mg/mL) at 37°C: 0.03 mg/mL (≈ 80.3 µM)
[1]; Acetate Buffer solution pH 4.0, room temperature
  Solubility (mg/mL) room temp: 0.03 mg/mL (≈ 80.3 µM)
[2]
  pKa: 5.4

## CC(=O)Oc1cc2c(s1)CCN(C(C(=O)C1CC1)c1ccccc1F)C2 (stereo not shown) [Prasugrel hydrobromide]
[1]; AGJ (without pepsin) pH 1.2, 37 °C, pH 1.2, simulated gastric fluid, AGJ (without pepsin) pH 1.2, 37°C, read-out: Solubility (mg/mL) at 37°C
  solubility at 24 h: 4.1 mg/mL
[1]; AGJ (without pepsin) pH 1.2, room temperature, hydrobromide
  Solubility (mg/mL) room temp: 3.924 mg/mL
[1]; Acetate Buffer solution pH 4.0, 37°C, hydrobromide
  Solubility (mg/mL) at 37°C: 0.153 mg/mL
[1]; Acetate Buffer solution pH 4.0, room temperature, hydrobromide
  Solubility (mg/mL) room temp: 0.138 mg/mL
[1]; Phosphate Buffer solution pH 6.8, 37°C, hydrobromide
  Solubility (mg/mL) at 37°C: 0.009 mg/mL
[1]; phosphate buffer solution pH 6.8, pH 6.8, aqueous buffer, Phosphate Buffer solution pH 6.8, room temperature, read-out: Solubility (mg/mL) room temp
  solubility at 24 h: 0.003 mg/mL

## CC(=O)Oc1cc2c(s1)CCN(C(C(=O)C1CC1)c1ccccc1F)C2 (stereo not shown) [Prasugrel hydroiodide]
[1]; AGJ (without pepsin) pH 1.2, 37°C, hydroiodide
  Solubility (mg/mL) at 37°C: 3.660 mg/mL
[1]; AGJ (without pepsin) pH 1.2, room temperature, hydroiodide
  Solubility (mg/mL) room temp: 2.600 mg/mL
[1]; Acetate Buffer solution pH 4.0, 37°C, hydroiodide
  Solubility (mg/mL) at 37°C: 0.166 mg/mL
[1]; Acetate Buffer solution pH 4.0, room temperature, hydroiodide
  Solubility (mg/mL) room temp: 0.132 mg/mL
[1]; Phosphate Buffer solution pH 6.8, 37°C, hydroiodide
  Solubility (mg/mL) at 37°C: 0.0018 mg/mL
[1]; Phosphate Buffer solution pH 6.8, room temperature, hydroiodide
  Solubility (mg/mL) room temp: 0.00316 mg/mL
[1]; compared with hydrochloride salt of prasugrel
  equilibrium solubility: comparable with solubility of hydrochloride salt of prasugrel
